{"source": "patent US20240041042A1", "about": "“1-(PYRIDYL)-5-AZINYLPYRAZOLE DERIVATIVES, AND THEIR USE FOR CONTROL OF UNDESIRED PLANT GROWTH” (Bayer Aktiengesellschaft, priority 2020, published 2024)", "assay_type_in_all_cases": "in vivo", "key": {"[1]": {"system": "Abutilon theophrasti (ABUTH)", "test": "Pre-emergence herbicidal action against ABUTH", "conditions": "Dosage column 320 g/ha (title prints 3200 g/ha); scored visually after about 3 weeks; 100% = plants have died", "summary_of_the_method": "(§1)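 Pre-emergence soil-surface spray of compound, formulated as wettable powder or emulsion concentrate, in aqueous suspension or emulsion with 0.5% additive (600 l/ha; rate 320 g/ha or less). Activity rated visually after roughly 3 weeks in the greenhouse as a percentage of untreated controls, 0% meaning no difference.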"}, "[2]": {"system": "Alopecurus myosuroides (ALOMY)", "test": "Pre-emergence herbicidal action against ALOMY", "conditions": "scored visually after about 3 weeks, 100% = plants have died", "summary_of_the_method": "as §1"}, "[3]": {"system": "Amaranthus retroflexus (AMARE)", "test": "Pre-emergence herbicidal action against AMARE", "conditions": "visual scoring after about 3 weeks vs untreated controls", "summary_of_the_method": "as §1"}, "Avena fatua (AVEFA) [4]": {"system": "Avena fatua (AVEFA)", "test": "Pre-emergence herbicidal action against AVEFA", "conditions": "320 g/ha, visual scoring after about 3 weeks vs untreated controls", "summary_of_the_method": "as §1"}, "[5]": {"system": "Digitaria sanguinalis (DIGSA)", "test": "Pre-emergence herbicidal action against DIGSA", "summary_of_the_method": "as §1"}, "[6]": {"system": "Echinochloa crus-galli (ECHCG)", "test": "Pre-emergence herbicidal action against ECHCG", "summary_of_the_method": "as §1"}, "Lolium rigidum (LOLRI) [7]": {"system": "Lolium rigidum (LOLRI)", "test": "Pre-emergence herbicidal action against LOLRI", "summary_of_the_method": "as §1"}, "[8]": {"system": "Matricaria inodora (MATIN)", "test": "Pre-emergence herbicidal action against MATIN", "summary_of_the_method": "as §1"}, "[9]": {"system": "Pharbitis purpurea (PHBPU)", "test": "Pre-emergence herbicidal action against PHBPU", "summary_of_the_method": "as §1"}, "[10]": {"system": "Polygonum convolvulus (POLCO)", "test": "Pre-emergence herbicidal action against POLCO", "summary_of_the_method": "as §1"}, "Setaria viridis (SETVI) [11]": {"system": "Setaria viridis (SETVI)", "test": "Pre-emergence herbicidal action against SETVI", "summary_of_the_method": "as §1"}, "[12]": {"system": "Verconica persica (VERPE)", "test": "Pre-emergence herbicidal action against VERPE", "summary_of_the_method": "as §1"}, "Viola tricolor (VIOTR) [13]": {"system": "Viola tricolor (VIOTR)", "test": "Pre-emergence herbicidal action against VIOTR", "summary_of_the_method": "as §1"}, "Zea mays (ZEAMX) [14]": {"system": "Zea mays (ZEAMX)", "conditions": "pre-emergence, 80 g/ha, crop plant compatibility, in comparison to untreated controls", "summary_of_the_method": "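Scoring: visual, % of untreated control, about 3 weeks after a pre-emergence application to the soil surface. Application used WP or EC formulations diluted in water with 0.5% additive at 600 l/ha; dosage levels are marked by suffixes a, b and c.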"}, "[15]": {"system": "Abutilon theophrasti (ABUTH)", "test": "Post-emergence herbicidal action against ABUTH", "conditions": "320 g/ha, visual rating about 3 weeks after treatment vs untreated controls (100% = plants have died, 0% = like control plants)", "summary_of_the_method": "(§2)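 Greenhouse plants sprayed at the one-leaf stage, 2–3 weeks after sowing, with WP or EC formulations plus 0.5% additive at 600 l/ha water. Activity rated visually after about 3 weeks versus untreated controls (100% = dead, 0% = like control), at 320 g/ha or lower.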"}, "[16]": {"system": "Alopecurus myosuroides (ALOMY)", "test": "Post-emergence herbicidal action against ALOMY", "conditions": "visual rating about 3 weeks after treatment vs untreated controls (100% = plants have died, 0% = like control plants)", "summary_of_the_method": "as §2"}, "Avena fatua (AVEFA) [17]": {"system": "Avena fatua (AVEFA)", "test": "Post-emergence herbicidal action against AVEFA", "conditions": "visual rating about 3 weeks after treatment", "summary_of_the_method": "as §2"}, "[18]": {"system": "Digitaria sanguinalis (DIGSA)", "test": "Post-emergence herbicidal action against DIGSA", "conditions": "visual rating about 3 weeks after treatment", "summary_of_the_method": "as §2"}, "[19]": {"system": "Echinochloa crus-galli (ECHCG)", "test": "Post-emergence herbicidal action against ECHCG", "conditions": "dosage 320 g/ha", "summary_of_the_method": "as §2"}, "Lolium rigidum (LOLRI) [20]": {"system": "Lolium rigidum (LOLRI)", "test": "Post-emergence herbicidal action against LOLRI", "summary_of_the_method": "as §2"}, "[21]": {"system": "Polygonum convolvulus (POLCO)", "test": "Post-emergence herbicidal action against POLCO", "summary_of_the_method": "as §2"}, "Setaria viridis (SETVI) [22]": {"system": "Setaria viridis (SETVI)", "test": "Post-emergence herbicidal action against SETVI", "summary_of_the_method": "as §2"}, "[23]": {"system": "Verconica persica (VERPE)", "test": "Post-emergence herbicidal action against VERPE", "conditions": "320 g/ha, VERPE", "summary_of_the_method": "as §2"}, "Viola tricolor (VIOTR) [24]": {"system": "Viola tricolor (VIOTR)", "test": "Post-emergence herbicidal action against VIOTR", "conditions": "320 g/ha", "summary_of_the_method": "as §2"}, "Zea mays (ZEAMX) [25]": {"system": "Zea mays (ZEAMX)", "conditions": "crop plant compatibility, effect vs untreated controls", "summary_of_the_method": "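Test crops were treated 2 to 3 weeks after sowing, once they reached one leaf, by spraying compound in water with 0.5% additive at 600 l/ha. Visual scoring compared them with untreated controls roughly 3 weeks on, and appendices a, b and c denote different doses.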"}}, "note": "Where two headings read alike, the source gives them in different places.", "data": [{"molecule": "C[C@@H](Oc1nn(-c2ncccc2F)c(-c2ccc(F)nc2)c1Br)C(=O)O", "note": "[Example I-10]", "values": [{"measurement": "Pre-emergence action against ABUTH", "setting": "[1]", "result": 80, "unit": "%"}, {"measurement": "Pre-emergence action against ALOMY", "setting": "[2]; 80 g/ha", "result": 100, "unit": "%"}, {"measurement": "Pre-emergence action against ALOMY", "setting": "[2]; 320 g/ha", "result": 100, "unit": "%"}, {"measurement": "Pre-emergence action against AMARE in %", "setting": "[3]; 80 g/ha", "result": 100, "unit": "%"}, {"measurement": "Pre-emergence action against AMARE in %", "setting": "[3]; 320 g/ha", "result": 100, "unit": "%"}, {"measurement": "Pre-emergence action against AVEFA in %", "setting": "Avena fatua (AVEFA) [4]", "result": 100, "unit": "%"}, {"measurement": "Pre-emergence action against DIGSA in %", "setting": "[5]; 80 g/ha, visual scoring after about 3 weeks vs untreated controls", "result": 100, "unit": "%"}, {"measurement": "Pre-emergence action against DIGSA in %", "setting": "[5]; dosage 320 g/ha", "result": 100, "unit": "%"}, {"measurement": "Pre-emergence action against ECHCG in %", "setting": "[6]; dosage 80 g/ha", "result": 80, "unit": "%"}, {"measurement": "Pre-emergence action against ECHCG in %", "setting": "[6]; dosage 320 g/ha", "result": 90, "unit": "%"}, {"measurement": "Pre-emergence action against LOLRI in %", "setting": "Lolium rigidum (LOLRI) [7]; dosage 80 g/ha", "result": 100, "unit": "%"}, {"measurement": "Pre-emergence action against LOLRI in %", "setting": "Lolium rigidum (LOLRI) [7]; dosage 320 g/ha", "result": 100, "unit": "%"}, {"measurement": "Pre-emergence action against MATIN in %", "setting": "[8]; dosage 80 g/ha", "result": 80, "unit": "%"}, {"measurement": "Pre-emergence action against MATIN in %", "setting": "[8]; dosage 320 g/ha", "result": 100, "unit": "%"}, {"measurement": "Pre-emergence action against PHBPU in %", "setting": "[9]; dosage 80 g/ha", "result": 90, "unit": "%"}, {"measurement": "Pre-emergence action against PHBPU in %", "setting": "[9]; dosage 320 g/ha", "result": 90, "unit": "%"}, {"measurement": "Pre-emergence action against POLCO in %", "setting": "[10]; dosage 80 g/ha", "result": 100, "unit": "%"}, {"measurement": "Pre-emergence action against POLCO in %", "setting": "[10]; dosage 320 g/ha", "result": 100, "unit": "%"}, {"measurement": "Pre-emergence action against SETVI in %", "setting": "Setaria viridis (SETVI) [11]; dosage 80 g/ha", "result": 100, "unit": "%"}, {"measurement": "Pre-emergence action against SETVI in %", "setting": "Setaria viridis (SETVI) [11]; dosage 320 g/ha", "result": 100, "unit": "%"}, {"measurement": "Pre-emergence action against VERPE in %", "setting": "[12]; dosage 80 g/ha", "result": 80, "unit": "%"}, {"measurement": "Pre-emergence action against VERPE in %", "setting": "[12]; dosage 320 g/ha", "result": 100, "unit": "%"}, {"measurement": "Pre-emergence action against VIOTR in %", "setting": "Viola tricolor (VIOTR) [13]; 320 g/ha, Viola tricolor", "result": 100, "unit": "%"}, {"measurement": "Pre-emergence action against VIOTR in %", "setting": "Viola tricolor (VIOTR) [13]; dosage 80 g/ha", "result": 100, "unit": "%"}, {"measurement": "Pre-emergence action against ZEAMX in %", "setting": "Zea mays (ZEAMX) [14]", "result": 20, "unit": "%"}, {"measurement": "Post-emergence action against ABUTH in %", "setting": "[15]", "result": 80, "unit": "%"}, {"measurement": "Post-emergence action against ALOMY in %", "setting": "[16]; 80 g/ha", "result": 100, "unit": "%"}, {"measurement": "Post-emergence action against ALOMY in %", "setting": "[16]; 320 g/ha", "result": 100, "unit": "%"}, {"measurement": "Post-emergence action against AVEFA in %", "setting": "Avena fatua (AVEFA) [17]; 80 g/ha", "result": 80, "unit": "%"}, {"measurement": "Post-emergence action against AVEFA in %", "setting": "Avena fatua (AVEFA) [17]; 320 g/ha", "result": 90, "unit": "%"}, {"measurement": "Post-emergence action against DIGSA in %", "setting": "[18]; 80 g/ha", "result": 90, "unit": "%"}, {"measurement": "Post-emergence action against DIGSA in %", "setting": "[18]; 320 g/ha", "result": 90, "unit": "%"}, {"measurement": "Post-emergence action against ECHCG in %", "setting": "[19]", "result": 80, "unit": "%"}, {"measurement": "Post-emergence action against LOLRI in %", "setting": "Lolium rigidum (LOLRI) [20]; dosage 80 g/ha", "result": 90, "unit": "%"}, {"measurement": "Post-emergence action against LOLRI in %", "setting": "Lolium rigidum (LOLRI) [20]; dosage 320 g/ha", "result": 90, "unit": "%"}, {"measurement": "Post-emergence action against POLCO in %", "setting": "[21]; dosage 80 g/ha", "result": 80, "unit": "%"}, {"measurement": "Post-emergence action against POLCO in %", "setting": "[21]; dosage 320 g/ha", "result": 80, "unit": "%"}, {"measurement": "Post-emergence action against SETVI in %", "setting": "Setaria viridis (SETVI) [22]; dosage 80 g/ha", "result": 80, "unit": "%"}, {"measurement": "Post-emergence action against SETVI in %", "setting": "Setaria viridis (SETVI) [22]; dosage 320 g/ha", "result": 80, "unit": "%"}, {"measurement": "Post-emergence action against VERPE in %", "setting": "[23]", "result": 80, "unit": "%"}, {"measurement": "Post-emergence action against VIOTR in %", "setting": "Viola tricolor (VIOTR) [24]", "result": 80, "unit": "%"}, {"measurement": "Post-emergence action against ZEAMX in %", "setting": "Zea mays (ZEAMX) [25]; 80 g/ha", "result": 0, "unit": "%"}, {"measurement": "Post-emergence action against ZEAMX in %", "setting": "Zea mays (ZEAMX) [25]; 320 g/ha", "result": 20, "unit": "%"}]}]}
